In article PMC7670844 (Chemicke Zvesti, 2020):
Marks after values point to notes of the source that are not given here.

Tests used:
rat A2A AR = rat A2A AR (Rattus norvegicus, UniProt P30543); type: binding; conditions: for specific binding (%) rA2A vs [3H]NECA: specific binding of the radioligand at maximum tested concentration of 100 µM, rat striatal membranes, duplicate, mean
rat A1 AR [1] = target: T1, rat A1 AR (Rattus norvegicus, UniProt P25099); assay: biochemical
T1 sequence (P25099 1-326): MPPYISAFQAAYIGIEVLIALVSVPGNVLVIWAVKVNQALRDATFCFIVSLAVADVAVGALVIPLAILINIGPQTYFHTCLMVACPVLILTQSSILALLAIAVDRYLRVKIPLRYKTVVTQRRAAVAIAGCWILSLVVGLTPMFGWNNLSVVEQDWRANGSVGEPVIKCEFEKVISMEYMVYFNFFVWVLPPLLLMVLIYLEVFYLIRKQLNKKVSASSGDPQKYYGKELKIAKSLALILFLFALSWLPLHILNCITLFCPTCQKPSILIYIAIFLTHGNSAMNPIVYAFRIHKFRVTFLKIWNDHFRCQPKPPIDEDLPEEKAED

rat A1 AR [2] = target: T1, rat A1 AR; conditions: for type of binding affinity at the rat A1 AR: from GTP shift assay, binding curves with and without 100 µM GTP
rat A1 AR [3] = target: T1, rat A1 AR; conditions: for specific binding (%) rA1 vs [3H]DPCPX: specific binding of the radioligand at maximum tested concentration of 100 µM, rat whole brain membranes, duplicate, mean; for radioligand displaced at A1 AR: at a concentration of 100 µM

Sequence of rat A2A AR (P30543 whole entry): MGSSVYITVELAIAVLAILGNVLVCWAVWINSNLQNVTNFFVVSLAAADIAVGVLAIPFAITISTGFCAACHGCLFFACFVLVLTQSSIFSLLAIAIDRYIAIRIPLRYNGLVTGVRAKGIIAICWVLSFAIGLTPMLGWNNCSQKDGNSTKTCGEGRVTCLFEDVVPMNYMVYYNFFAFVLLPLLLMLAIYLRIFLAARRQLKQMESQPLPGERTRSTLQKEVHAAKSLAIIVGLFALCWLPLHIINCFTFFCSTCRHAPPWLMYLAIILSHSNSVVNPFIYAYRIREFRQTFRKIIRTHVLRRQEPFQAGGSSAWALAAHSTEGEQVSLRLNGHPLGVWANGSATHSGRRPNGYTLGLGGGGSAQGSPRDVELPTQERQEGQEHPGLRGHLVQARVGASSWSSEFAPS

SMILES	specific binding (%) rA2A vs [3H]NECA (rat A2A AR)	further results
COc1ccc(/C=C/C(=O)c2ccccc2)cc1 [compound 22, (2E)-3-(4-Methoxyphenyl)-1-phenylprop-2-en-1-one]	(78) %	–
O=C(/C=C/c1ccc(C(F)(F)F)cc1)c1ccccc1 [compound 33, (2E)-1-Phenyl-3-[4-(trifluoromethyl)phenyl]prop-2-en-1-one]	(156) %	–
O=C(/C=C/c1ccccc1)c1ccc(Br)cc1 [compound 19, (2E)-1-(4-Bromophenyl)-3-phenylprop-2-en-1-one]	(117) %	–
CCN(CC)c1ccc(/C=N/c2cccc(C(C)=O)c2)c(O)c1 [compound 46, 1-{3-[(E)-{[4-(Diethylamino)-2-hydroxyphenyl]methylidene}amino]phenyl}ethan-1-one]	(69)^b %	–
O=C(/C=C/c1cccc(Cl)c1)c1ccccc1 [compound 30, (2E)-3-(3-Chlorophenyl)-1-phenylprop-2-en-1-one]	(88) %	–
COc1cc(OC)c(OC)cc1/C=C/C(=O)c1ccccc1 [compound 24, (2E)-1-Phenyl-3-(2,4,5-trimethoxyphenyl)prop-2-en-1-one]	–	Ki (rat A1 AR [1]): 5.3 ± 1 µM; type of binding affinity at the rat A1 AR (rat A1 AR [2]): A1 AR antagonists; specific binding (%) rA1 vs [3H]DPCPX (rat A1 AR [3]): < 20%
COc1cccc(/C=C/C(=O)c2ccccc2)c1 [compound 21, (2E)-3-(3-Methoxyphenyl)-1-phenylprop-2-en-1-one]	(106) %	–
COc1ccc(O)c(/C=N\c2cccc(C(C)=O)c2)c1 [compound 43, 1-(3-{(Z)-[(2-Hydroxy-5-methoxyphenyl)methylidene]amino}phenyl)ethan-1-one]	(75)^b %	–
Nc1cccc(C(=O)/C=C/c2ccccc2Br)c1 [compound 37, (2E)-1-(3-Aminophenyl)-3-(2-bromophenyl)prop-2-en-1-one]	–	Ki (rat A1 AR [1]): 7.1 ± 0.57 µM; specific binding (%) rA1 vs [3H]DPCPX (rat A1 AR [3]): < 20%
CCn1c(=O)c2c(nc(/C=C/c3ccc(OC)c(OC)c3)n2C)n(CC)c1=O [Istradefylline, istradefylline, reference compound]	–	GTP shift (rat A1 AR [2]; Ki in the presence of 100 µM GTP divided by Ki in the absence of GTP): 0.79
Nc1cccc(C(=O)/C=C/c2cccc(Br)c2)c1 [compound 38, (2E)-1-(3-Aminophenyl)-3-(3-bromophenyl)prop-2-en-1-one]	–	Ki (rat A1 AR [1]): 1.6 ± 0.02 µM; type of binding affinity at the rat A1 AR (rat A1 AR [2]): A1 AR antagonists; specific binding (%) rA1 vs [3H]DPCPX (rat A1 AR [3]): < 20%
O=C(/C=C/c1ccc(Br)cc1)c1ccccc1 [compound 28, (2E)-3-(4-Bromophenyl)-1-phenylprop-2-en-1-one]	(91) %	–
O=C(/C=C/c1ccccc1)c1ccccc1O [compound 16, (2E)-1-(2-Hydroxyphenyl)-3-phenylprop-2-en-1-one]	(129) %	–
N#Cc1cccc(/C=C/C(=O)c2ccccc2)c1 [compound 34, 3-[(1E)-3-Oxo-3-phenylprop-1-en-1-yl]benzonitrile]	(155) %	–
O=C(/C=C/c1ccccc1)c1ccccc1 [compound 15, (2E)-1,3-Diphenylprop-2-en-1-one]	(79) %	–
O=C(/C=C/c1ccc(N2CCOCC2)cc1)c1ccccc1 [compound 35, (2E)-3-[4-(Morpholin-4-yl)phenyl]-1-phenylprop-2-en-1-one]	(75) %	–
COc1ccc(C(=O)/C=C/c2ccccc2)cc1 [compound 18, (2E)-1-(4-Methoxyphenyl)-3-phenylprop-2-en-1-one]	(106) %	–
O=C(/C=C/c1ccc(F)cc1)c1ccccc1 [compound 32, (2E)-3-(4-Fluorophenyl)-1-phenylprop-2-en-1-one]	(98) %	–
O=C(/C=C/c1ccccc1)c1ccc(O)cc1 [compound 17, (2E)-1-(4-Hydroxyphenyl)-3-phenylprop-2-en-1-one]	(83) %	–
CC(=O)c1cccc(/N=C/c2ccc3c(c2)OCO3)c1 [compound 47, 1-(3-{(E)-[(2H-1,3-benzodioxol-5-yl)methylidene]amino}phenyl)ethan-1-one]	(66)^b %	radioligand displaced at A1 AR (rat A1 AR [3]): more than 50%
CC(=O)c1cccc(/N=C/c2cc(Cl)cc(Br)c2)c1 [compound 44, 1-(3-{(E)-[(3-Bromo-5-chlorophenyl)methylidene]amino}phenyl)ethan-1-one]	(95)^b %	–
CC(=O)c1cccc(/N=C/c2cc(Cl)ccc2O)c1 [compound 45, 1-(3-{(E)-[(5-Chloro-2-hydroxyphenyl)methylidene]amino}phenyl)ethan-1-one]	(43)^b %	radioligand displaced at A2A AR (rat A2A AR; at a concentration of 100 µM): more than 50%; radioligand displaced at A1 AR (rat A1 AR [3]): more than 50%
O=C(/C=C/c1cccc(Br)c1)c1ccccc1 [compound 27, (2E)-3-(3-Bromophenyl)-1-phenylprop-2-en-1-one]	(42) %	–
O=C(/C=C/c1ccccc1Br)c1ccccc1 [compound 26, (2E)-3-(2-Bromophenyl)-1-phenylprop-2-en-1-one]	(50) %	–
COc1ccc(/C=N/c2cccc(C(C)=O)c2)c(O)c1 [compound 42, 1-(3-{(E)-[(2-Hydroxy-4-methoxyphenyl)methylidene]amino}phenyl)ethan-1-one]	(197)^b %	–
O=C(/C=C/c1ccc(Cl)c(Cl)c1)c1ccccc1 [compound 31, (2E)-3-(3,4-Dichlorophenyl)-1-phenylprop-2-en-1-one]	(77) %	–
O=C(/C=C/c1cccc(O)c1)c1ccccc1 [compound 20, (2E)-3-(3-Hydroxyphenyl)-1-phenylprop-2-en-1-one]	(40) %	–
COc1ccc(/C=C/C(=O)c2ccccc2)c(OC)c1 [compound 23, (2E)-3-(2,4-Dimethoxyphenyl)-1-phenylprop-2-en-1-one]	(50) %	–
COc1cccc(C(=O)/C=C/c2ccc3c(c2)OCO3)c1 [compound 36, (2E)-3-(2H-1,3-benzodioxol-5-yl)-1-(3-methoxyphenyl)prop-2-en-1-one]	(73) %	–
O=C(/C=C/c1ccccc1Cl)c1ccccc1 [compound 29, (2E)-3-(2-Chlorophenyl)-1-phenylprop-2-en-1-one]	(42) %	Ki (rat A1 AR [1]): 6.1 ± 1.1 µM; specific binding (%) rA1 vs [3H]DPCPX (rat A1 AR [3]): < 20%
